Laboratory results: patent US10167262B2, “Herbicidal substituted 3-arylpyrazoles” (FMC CORPORATION, priority 2014, dated 2019)

Columns and labels:
Test in all cases: Test C pre-/postemergence greenhouse test, plant response rating 0-100
Type in all cases: in vivo
[1] = test system: johnsongrass (Sorghum halepense)
In short: (§1)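 Visual rating vs controls after 13–15 d greenhouse; 0 = no effect, 100 = complete control. Pre: seeds in loam/sand, treated at planting. Post: seedlings 2–18 cm (1–4 leaf) in peat-based mix. Compounds in surfactant-containing non-phytotoxic solvent.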

soybean (Glycine max) = test system: soybean (Glycine max)
In short: as §1

[2] = test system: pigweed (Amaranthus retroflexus)
In short: as §1

[3] = test system: large (Lg) crabgrass (Digitaria sanguinalis)
In short: as §1

[4] = test system: galium (catchweed bedstraw, Galium aparine)
In short: as §1

[5] = test system: winter wheat (Triticum aestivum)
In short: as §1

[6] = test system: lambsquarters (Chenopodium album)
In short: as §1

[7] = test system: morningglory (Ipomoea coccinea)
In short: as §1

[8] = test system: velvetleaf (Abutilon theophrasti)
In short: as §1

corn (Zea mays) = test system: corn (Zea mays)
In short: as §1

[9] = test system: Italian ryegrass (Lolium multiflorum)
In short: as §1

[10] = test system: giant foxtail (Setaria faberii)
In short: as §1

[11] = test system: yellow nutsedge (Cyperus esculentus)
In short: as §1

[12] = Postemergence, 250 g ai/ha, scale 0 to 100
[13] = Postemergence, 500 g ai/ha, scale 0 to 100

Structure (SMILES): CCOC(OCC)(c1cccs1)c1c[nH]nc1-c1cc(Cl)cc(Cl)c1 [Compound 27]
- Plant response rating (0 to 100), Johnsongrass ([1]; Postemergence, 62 g ai/ha): 0
- Plant response rating (0 to 100), Johnsongrass ([1]; Postemergence, 125 g ai/ha): 0
- Plant response rating, Johnsongrass [1, 12]: 0
- Plant response rating, Johnsongrass [1, 13]: 10
- Plant response rating, Johnsongrass ([1]; Preemergence, 62 g ai/ha): 0
- Plant response rating, Johnsongrass ([1]; Preemergence, 125 g ai/ha): 0
- Plant response rating, Johnsongrass ([1]; Preemergence, 250 g ai/ha): 0
- Plant response rating, Johnsongrass ([1]; Preemergence, 500 g ai/ha): 0
- Plant response rating (0 to 100), Soybean (soybean (Glycine max); Postemergence, 62 g ai/ha): 0
- Plant response rating (0 to 100), Soybean (soybean (Glycine max); Postemergence, 125 g ai/ha): 0
- Plant response rating, Soybean (soybean (Glycine max); [12]): 0
- Plant response rating, Soybean (soybean (Glycine max); [13]): 0
- Plant response rating, Soybean (soybean (Glycine max); Preemergence, 62 g ai/ha): 0
- Plant response rating, Soybean (soybean (Glycine max); Preemergence, 125 g ai/ha): 0
- Plant response rating, Soybean (soybean (Glycine max); Preemergence, 250 g ai/ha): 40
- Plant response rating, Soybean (soybean (Glycine max); Preemergence, 500 g ai/ha): 0
- Plant response rating (0 to 100), Pigweed ([2]; Postemergence, 62 g ai/ha): 80
- Plant response rating (0 to 100), Pigweed ([2]; Postemergence, 125 g ai/ha): 95
- Plant response rating, Pigweed [2, 12]: 100
- Plant response rating, Pigweed [2, 13]: 100
- Plant response rating, Pigweed ([2]; Preemergence, 62 g ai/ha): 98
- Plant response rating, Pigweed ([2]; Preemergence, 125 g ai/ha): 100
- Plant response rating, Pigweed ([2]; Preemergence, 250 g ai/ha): 100
- Plant response rating, Pigweed ([2]; Preemergence, 500 g ai/ha): 100
- Plant response rating (0 to 100), Crabgrass, Large ([3]; Postemergence, 62 g ai/ha): 0
- Plant response rating (0 to 100), Crabgrass, Large ([3]; Postemergence, 125 g ai/ha): 0
- Plant response rating, Crabgrass, Large [3, 12]: 10
- Plant response rating, Crabgrass, Large [3, 13]: 10
- Plant response rating, Crabgrass, Large ([3]; Preemergence, 62 g ai/ha): 0
- Plant response rating, Crabgrass, Large ([3]; Preemergence, 125 g ai/ha): 0
- Plant response rating, Crabgrass, Large ([3]; Preemergence, 250 g ai/ha): 0
- Plant response rating, Crabgrass, Large ([3]; Preemergence, 500 g ai/ha): 0
- Plant response rating (0 to 100), Galium ([4]; Postemergence, 62 g ai/ha): 0
- Plant response rating (0 to 100), Galium ([4]; Postemergence, 125 g ai/ha): 0
- Plant response rating, Galium [4, 12]: 0
- Plant response rating, Galium [4, 13]: 0
- Plant response rating, Galium ([4]; Preemergence, 62 g ai/ha): 0
- Plant response rating, Galium ([4]; Preemergence, 125 g ai/ha): 50
- Plant response rating, Galium ([4]; Preemergence, 250 g ai/ha): 80
- Plant response rating, Galium ([4]; Preemergence, 500 g ai/ha): 30
- Plant response rating (0 to 100), Wheat ([5]; Postemergence, 62 g ai/ha): 0
- Plant response rating (0 to 100), Wheat ([5]; Postemergence, 125 g ai/ha): 0
- Plant response rating, Wheat [5, 12]: 0
- Plant response rating, Wheat [5, 13]: 0
- Plant response rating, Wheat ([5]; Preemergence, 62 g ai/ha): 0
- Plant response rating, Wheat ([5]; Preemergence, 125 g ai/ha): 0
- Plant response rating, Wheat ([5]; Preemergence, 250 g ai/ha): 0
- Plant response rating, Wheat ([5]; Preemergence, 500 g ai/ha): 0
- Plant response rating (0 to 100), Lambsquarters ([6]; Postemergence, 62 g ai/ha): 75
- Plant response rating (0 to 100), Lambsquarters ([6]; Postemergence, 125 g ai/ha): 95
- Plant response rating, Lambsquarters [6, 12]: 98
- Plant response rating, Lambsquarters [6, 13]: 98
- Plant response rating, Lambsquarters ([6]; Preemergence, 62 g ai/ha): 100
- Plant response rating, Lambsquarters ([6]; Preemergence, 125 g ai/ha): 100
- Plant response rating, Lambsquarters ([6]; Preemergence, 250 g ai/ha): 100
- Plant response rating, Lambsquarters ([6]; Preemergence, 500 g ai/ha): 100
- Plant response rating (0 to 100), Morningglory ([7]; Postemergence, 62 g ai/ha): 0
- Plant response rating (0 to 100), Morningglory ([7]; Postemergence, 125 g ai/ha): 0
- Plant response rating, Morningglory [7, 12]: 0
- Plant response rating, Morningglory [7, 13]: 55
- Plant response rating, Morningglory ([7]; Preemergence, 62 g ai/ha): 0
- Plant response rating, Morningglory ([7]; Preemergence, 125 g ai/ha): 0
- Plant response rating, Morningglory ([7]; Preemergence, 250 g ai/ha): 0
- Plant response rating, Morningglory ([7]; Preemergence, 500 g ai/ha): 0
- Plant response rating (0 to 100), Velvetleaf ([8]; Postemergence, 62 g ai/ha): 65
- Plant response rating (0 to 100), Velvetleaf ([8]; Postemergence, 125 g ai/ha): 70
- Plant response rating, Velvetleaf [8, 12]: 75
- Plant response rating, Velvetleaf [8, 13]: 75
- Plant response rating, Velvetleaf ([8]; Preemergence, 62 g ai/ha): 10
- Plant response rating, Velvetleaf ([8]; Preemergence, 125 g ai/ha): 40
- Plant response rating, Velvetleaf ([8]; Preemergence, 250 g ai/ha): 65
- Plant response rating, Velvetleaf ([8]; Preemergence, 500 g ai/ha): 60
- Plant response rating (0 to 100), Corn (corn (Zea mays); Postemergence, 62 g ai/ha): 0
- Plant response rating (0 to 100), Corn (corn (Zea mays); Postemergence, 125 g ai/ha): 0
- Plant response rating, Corn (corn (Zea mays); [12]): 0
- Plant response rating, Corn (corn (Zea mays); [13]): 0
- Plant response rating, Corn (corn (Zea mays); Preemergence, 62 g ai/ha): 0
- Plant response rating, Corn (corn (Zea mays); Preemergence, 125 g ai/ha): 0
- Plant response rating, Corn (corn (Zea mays); Preemergence, 250 g ai/ha): 0
- Plant response rating, Corn (corn (Zea mays); Preemergence, 500 g ai/ha): 0
- Plant response rating (0 to 100), Ryegrass, Italian ([9]; Postemergence, 62 g ai/ha): 5
- Plant response rating (0 to 100), Ryegrass, Italian ([9]; Postemergence, 125 g ai/ha): 0
- Plant response rating, Ryegrass, Italian [9, 12]: 5
- Plant response rating, Ryegrass, Italian [9, 13]: 5
- Plant response rating, Ryegrass, Italian ([9]; Preemergence, 62 g ai/ha): 0
- Plant response rating, Ryegrass, Italian ([9]; Preemergence, 125 g ai/ha): 0
- Plant response rating, Ryegrass, Italian ([9]; Preemergence, 250 g ai/ha): 0
- Plant response rating, Ryegrass, Italian ([9]; Preemergence, 500 g ai/ha): 0
- Plant response rating (0 to 100), Foxtail, Giant ([10]; Postemergence, 62 g ai/ha): 0
- Plant response rating (0 to 100), Foxtail, Giant ([10]; Postemergence, 125 g ai/ha): 0
- Plant response rating, Foxtail, Giant [10, 12]: 0
- Plant response rating, Foxtail, Giant [10, 13]: 0
- Plant response rating, Foxtail, Giant ([10]; Preemergence, 62 g ai/ha): 0
- Plant response rating, Foxtail, Giant ([10]; Preemergence, 125 g ai/ha): 0
- Plant response rating, Foxtail, Giant ([10]; Preemergence, 250 g ai/ha): 0
- Plant response rating, Foxtail, Giant ([10]; Preemergence, 500 g ai/ha): 0
- Plant response rating (0 to 100), Nutsedge, Yellow ([11]; Postemergence, 62 g ai/ha): 0
- Plant response rating (0 to 100), Nutsedge, Yellow ([11]; Postemergence, 125 g ai/ha): 0
- Plant response rating, Nutsedge, Yellow [11, 12]: 0
- Plant response rating, Nutsedge, Yellow [11, 13]: 0
- Plant response rating, Nutsedge, Yellow ([11]; Preemergence, 62 g ai/ha): 0
- Plant response rating, Nutsedge, Yellow ([11]; Preemergence, 125 g ai/ha): 0
- Plant response rating, Nutsedge, Yellow ([11]; Preemergence, 250 g ai/ha): 0
- Plant response rating, Nutsedge, Yellow ([11]; Preemergence, 500 g ai/ha): 0
